Where two headings read alike, the source gives them in different places.
Legend:
[1] = system: P19 neurons; assay: A23187-induced toxicity in P19 neurons (Alamar blue); type: cell-based, murine; conditions: Mus musculus, Neuron, 24 h
Method: Cells were then assayed for Alamar blue fluorescence. […] Data points are represented as percent of control cells ±standard error.

[2] = target: T1, CDK1 (Homo sapiens, UniProt P06493); assay: Kinase assay (33P Flashplate), CDK1; type: biochemical; conditions: mean of at least two curves
T1 construct: host or cells: insect cells
T1 sequence (P06493 whole entry): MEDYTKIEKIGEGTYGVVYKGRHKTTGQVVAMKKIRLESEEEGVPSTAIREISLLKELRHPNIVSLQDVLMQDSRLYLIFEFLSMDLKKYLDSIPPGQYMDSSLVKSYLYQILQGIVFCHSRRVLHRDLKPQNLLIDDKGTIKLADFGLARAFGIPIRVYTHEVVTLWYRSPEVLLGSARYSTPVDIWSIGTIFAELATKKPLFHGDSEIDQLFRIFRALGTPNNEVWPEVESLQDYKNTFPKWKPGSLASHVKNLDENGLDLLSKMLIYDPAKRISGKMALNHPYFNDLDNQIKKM
T1 sequence (P14635 whole entry partner): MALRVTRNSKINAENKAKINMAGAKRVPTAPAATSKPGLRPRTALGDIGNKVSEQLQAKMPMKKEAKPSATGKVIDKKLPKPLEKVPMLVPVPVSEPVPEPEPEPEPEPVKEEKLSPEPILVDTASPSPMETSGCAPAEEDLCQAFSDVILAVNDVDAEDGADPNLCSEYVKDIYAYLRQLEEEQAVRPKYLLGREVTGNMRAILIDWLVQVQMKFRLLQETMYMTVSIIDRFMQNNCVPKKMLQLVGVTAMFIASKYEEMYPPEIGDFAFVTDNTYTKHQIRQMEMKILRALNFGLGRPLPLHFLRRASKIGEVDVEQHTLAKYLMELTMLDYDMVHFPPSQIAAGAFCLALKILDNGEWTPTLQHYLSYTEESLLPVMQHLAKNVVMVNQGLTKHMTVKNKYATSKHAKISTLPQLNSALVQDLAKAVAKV
Method: (§1) The general procedure used to assay for kinase activity was as follows: a kinase reaction mix was prepared in 50 mM Tris-HCl pH=8, 10 mM MgCl2, 0.1 mM Na3VO4, 1 mM DTT, 10 μM ATP, 0.25-1 μM biotinylated peptide substrate, 0.2-0.8 [Curies per well ^33P-γ-ATP [2000-3000 Ci/mmol]. Assay conditions varied slightly for each protein kinase, for example, insulin receptor kinase requires 10 mM MnCl2 for activity and calmodulin-dependent protein kinase requires calmodulin and 10 mM CaCl2. Reaction mix was dispensed into the wells of a streptavidin-coated Flashplate and 1 μl drug stock in 100% DMSO was added to a 100 μL reaction volume resulting in a final concentration of 1% DMSO in the reaction. Enzyme was diluted in 50 mM Tris-HCl pH=8.0, 0.1% BSA and added to each well. […] Test compounds were assayed in duplicate at 8 concentrations ranging from 100 μM to 10 μM in one order of magnitude steps. […] The IC50 was calculated from the dose response curve of the percent inhibition of the maximum signal in the assay according to the formula [max signal−background/test compound signal−background×(100)]=% inhibition by graphing the percent inhibition against the log concentration of test compound.
(§2) Casein Kinase 1 is a truncation at amino acid 318 of the C-terminal portion of the rat CK1 delta isoform produced in E. coli.

[3] = system: differentiated P19 neurons; assay: Differentiated P19 excitotoxicity assay (glutamate/glycine-induced death, Alamar Blue); type: cell-based, murine; conditions: for IC50: read-out: IC50 for Neuroprotection [lower-upper 95% C.I.]; for Emax: read-out: Maximal Efficacy for Neuroprotection
Method: Alamar Blue fluorescence, an indicator of cell viability, was used to determine cell viability after an NMDA-induced cytotoxic insult. […] However, since raw fluorescence counts vary from experiment to experiment, FIGS. 2A, 2B, and 2C are expressed as a percent of control.
(§3) Glutamate toxicity dose response in the presence of a constant 1 mM glycine concentration was measured in the differentiated P19 neurons. The curve generated through the data points is the average of 6 separate dose response curves. Data points are represented as the percent of control cells ±standard error. % control=(([Glutamate]exp−[Glutamate]max)/(Controlvehicle−[Glutamate]max))×100.
Data points are the average ±standard error of three separate experiments.
These cells were used to measure the effects of various known kinase inhibitors (Compound Identification (ID) column in Table I) upon cytotoxicity-induced by NMDA. First, P19 cells were differentiated as described in Example 2. Then cells were exposed to 3 mM of glutamate in the presence of 1 mM glycine.
Cell viability was determined. Compounds that prevented excitotoxicity were determined by measuring the percentage of viable cells compared to differentiated P19 cells that were not presented with a toxic insult (Table I).
Cell viability was measured using two methods. The first method was a confocal, single-cell fluorescence imaging-based method using the live cell dye carboxy-fluorescein diacetate (CFDA). CFDA labels the cell bodies and processes of living cells. […] CFDA fluorescence was measured using a modified Attofluor Imager device (Atto Instruments, Rockville Pike, Md.). Cells were labeled with 1 uM CFDA for 15 min in media, then placed onto the stage of the Attofluor microscope. The dye was excited by light from a mercury lamp source passed through a 488 nm bandpass filter of 10 nm band width, passed through a CARV real-time confocal spinning disk module (Atto Instruments, Rockville, Md.), and then passed through a 40× oil immersion objective (Zeiss Fluar, NA=1.3). Emitted light was transmitted through a 495 nm dichroic mirror, collected to an Attofluor intensified CCD camera, and images were visualized using Attofluor RatioVision software (Atto Instruments, Rockville, Md.).
The second method for measuring cell viability was a plate reader method. Cells plated into black 96 well plates (Packard viewplates) are loaded with 5% Alamar Blue dye (Biosource International). Alamar Blue is a dye that takes advantage of mitochondrial reductases to convert non-fluorescent resazurin to fluorescent resorufin (excitation 535 nm, emission 580 nm). Baseline fluorescence counts were read at room temperature in a Wallac plate reader immediately after addition of Alamar blue. Fluorescence counts of cell viability were taken the same way after 1 hour incubation at 37° C. Fluorescence was expressed as a percent of control, untreated cells after subtraction of background fluorescence. Live/dead cells were confirmed visually with a light microscope. […]

[4] = target: T2, Insulin Receptor Kinase (Homo sapiens, UniProt P06213); assay: Kinase assay (33P Flashplate), Insulin Receptor Kinase; type: biochemical; conditions: mean of at least two curves
T2 construct: Insulin Receptor Kinase consists of residues 941-1313 of the cytoplasmic domain of the beta-subunit of the human insulin receptor
T2 sequence (P06213 980-1352): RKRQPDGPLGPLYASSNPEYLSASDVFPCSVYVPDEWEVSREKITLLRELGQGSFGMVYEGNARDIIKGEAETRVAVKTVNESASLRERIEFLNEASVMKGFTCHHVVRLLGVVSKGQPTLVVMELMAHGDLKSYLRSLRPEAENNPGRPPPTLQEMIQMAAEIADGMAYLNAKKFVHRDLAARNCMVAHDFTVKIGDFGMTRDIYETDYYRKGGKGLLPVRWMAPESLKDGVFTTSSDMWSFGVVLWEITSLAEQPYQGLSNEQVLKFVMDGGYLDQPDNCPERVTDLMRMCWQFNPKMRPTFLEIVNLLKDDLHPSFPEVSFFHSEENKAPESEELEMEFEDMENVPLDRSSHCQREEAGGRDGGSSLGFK
Method: as §1, §2

[5] = target: T3, Casein Kinase 2 (Homo sapiens, UniProt P68400); assay: Kinase assay (33P Flashplate), Casein Kinase 2; type: biochemical; conditions: mean of at least two curves
T3 construct: host or cells: E. coli
T3 sequence (P68400 whole entry): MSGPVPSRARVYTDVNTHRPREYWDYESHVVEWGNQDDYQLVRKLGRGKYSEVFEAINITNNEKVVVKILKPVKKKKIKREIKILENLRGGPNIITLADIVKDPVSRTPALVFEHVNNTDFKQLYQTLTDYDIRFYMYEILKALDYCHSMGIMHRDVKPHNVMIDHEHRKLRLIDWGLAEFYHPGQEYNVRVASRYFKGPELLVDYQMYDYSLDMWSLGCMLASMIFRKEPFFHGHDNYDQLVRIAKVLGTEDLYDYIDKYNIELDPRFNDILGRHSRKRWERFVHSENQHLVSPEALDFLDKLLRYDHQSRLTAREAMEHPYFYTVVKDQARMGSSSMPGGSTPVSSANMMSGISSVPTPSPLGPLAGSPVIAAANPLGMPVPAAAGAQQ
T3 sequence (P67870 whole entry partner): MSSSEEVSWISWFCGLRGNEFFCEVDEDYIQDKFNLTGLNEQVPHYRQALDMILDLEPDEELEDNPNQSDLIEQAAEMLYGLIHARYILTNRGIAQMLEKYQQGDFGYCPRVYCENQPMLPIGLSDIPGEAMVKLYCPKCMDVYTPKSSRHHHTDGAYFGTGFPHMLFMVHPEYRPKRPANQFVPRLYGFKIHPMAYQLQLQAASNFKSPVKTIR
Method: as §1, §2

[6] = target: T4, Calmodulin Kinase (Rattus norvegicus, UniProt P11275); assay: Kinase assay (33P Flashplate), Calmodulin Kinase; type: biochemical; conditions: mean of at least two curves
T4 construct: host or cells: insect cells
T4 sequence (P11275 1-325): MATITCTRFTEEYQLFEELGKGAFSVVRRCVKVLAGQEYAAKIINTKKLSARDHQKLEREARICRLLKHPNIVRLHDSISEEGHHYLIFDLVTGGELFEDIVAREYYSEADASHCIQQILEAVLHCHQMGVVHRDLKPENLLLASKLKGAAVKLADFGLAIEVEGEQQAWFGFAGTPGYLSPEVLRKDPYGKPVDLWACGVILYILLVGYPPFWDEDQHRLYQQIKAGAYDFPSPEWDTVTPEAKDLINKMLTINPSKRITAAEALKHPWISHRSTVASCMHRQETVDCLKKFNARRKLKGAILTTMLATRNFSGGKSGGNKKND
Method: as §1, §2

[7] = target: T5, PK A (Bos taurus, UniProt P00517); assay: Kinase assay (33P Flashplate), Protein Kinase A; type: biochemical, bovine; conditions: mean of at least two curves; read-out: PK A
T5 construct: Protein Kinase A is the catalytic subunit of cAMP-dependent protein kinase-A purified from bovine heart; from tissue; host or cells: bovine heart
Method: Assay conditions varied slightly for each protein kinase, for example, insulin receptor kinase requires 10 mM MnCl2 for activity and calmodulin-dependent protein kinase requires calmodulin and 10 mM CaCl2. Reaction mix was dispensed into the wells of a streptavidin-coated Flashplate and 1 μl drug stock in 100% DMSO was added to a 100 μL reaction volume resulting in a final concentration of 1% DMSO in the reaction. Enzyme was diluted in 50 mM Tris-HCl pH=8.0, 0.1% BSA and added to each well. The reaction was incubated for one hour at 30° C. in the presence of compound. After one hour the reaction mix was aspirated from the plate and the plate was washed with PBS containing 100 mM EDTA. The plate was read on a scintillation counter to determine ^33P-γ-ATP incorporated into the immobilized peptide. Test compounds were assayed in duplicate at 8 concentrations ranging from 100 μM to 10 μM in one order of magnitude steps. A maximum and minimum signal for the assay was determined on each plate. The IC50 was calculated from the dose response curve of the percent inhibition of the maximum signal in the assay according to the formula [max signal−background/test compound signal−background×(100)]=% inhibition by graphing the percent inhibition against the log concentration of test compound. Known inhibitor compounds appropriate for the kinase being assayed were also included on each plate. […]

[8] = target: T6, PKC-γ (Homo sapiens, UniProt P05129); assay: Kinase assay (33P Flashplate), PKC-γ; type: biochemical; conditions: mean of at least two curves
T6 construct: host or cells: insect cells
Method: as §1, §2

[9] = target: T7, Casein Kinase 1 (Rattus norvegicus, UniProt Q06486); assay: Kinase assay (33P Flashplate), Casein Kinase 1; type: biochemical; conditions: mean of at least two curves
T7 construct: a truncation at amino acid 318 of the C-terminal portion of the rat CK1 delta isoform; host or cells: E. coli
T7 sequence (Q06486 1-317): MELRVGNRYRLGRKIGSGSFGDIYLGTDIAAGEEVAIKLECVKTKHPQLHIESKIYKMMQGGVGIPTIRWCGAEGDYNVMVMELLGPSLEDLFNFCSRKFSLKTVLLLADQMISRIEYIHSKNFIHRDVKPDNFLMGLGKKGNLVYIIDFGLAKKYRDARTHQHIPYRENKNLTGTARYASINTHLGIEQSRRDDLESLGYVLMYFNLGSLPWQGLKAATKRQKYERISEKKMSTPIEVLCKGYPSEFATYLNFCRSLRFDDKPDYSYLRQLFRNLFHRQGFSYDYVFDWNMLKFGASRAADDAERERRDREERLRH
Method: as §1, §2

[10] = system: P19 neurons; conditions: mouse, 1 mM
Method: as §3

[11] = target: CAMKII; conditions: from the literature; read-out: Potency, CAMKII; cited from earlier work
[12] = target: EGF receptor (Homo sapiens, UniProt P00533); conditions: from the literature; read-out: Potency, EGF receptor; cited from earlier work
Chain of EGF receptor (P00533 25-1210): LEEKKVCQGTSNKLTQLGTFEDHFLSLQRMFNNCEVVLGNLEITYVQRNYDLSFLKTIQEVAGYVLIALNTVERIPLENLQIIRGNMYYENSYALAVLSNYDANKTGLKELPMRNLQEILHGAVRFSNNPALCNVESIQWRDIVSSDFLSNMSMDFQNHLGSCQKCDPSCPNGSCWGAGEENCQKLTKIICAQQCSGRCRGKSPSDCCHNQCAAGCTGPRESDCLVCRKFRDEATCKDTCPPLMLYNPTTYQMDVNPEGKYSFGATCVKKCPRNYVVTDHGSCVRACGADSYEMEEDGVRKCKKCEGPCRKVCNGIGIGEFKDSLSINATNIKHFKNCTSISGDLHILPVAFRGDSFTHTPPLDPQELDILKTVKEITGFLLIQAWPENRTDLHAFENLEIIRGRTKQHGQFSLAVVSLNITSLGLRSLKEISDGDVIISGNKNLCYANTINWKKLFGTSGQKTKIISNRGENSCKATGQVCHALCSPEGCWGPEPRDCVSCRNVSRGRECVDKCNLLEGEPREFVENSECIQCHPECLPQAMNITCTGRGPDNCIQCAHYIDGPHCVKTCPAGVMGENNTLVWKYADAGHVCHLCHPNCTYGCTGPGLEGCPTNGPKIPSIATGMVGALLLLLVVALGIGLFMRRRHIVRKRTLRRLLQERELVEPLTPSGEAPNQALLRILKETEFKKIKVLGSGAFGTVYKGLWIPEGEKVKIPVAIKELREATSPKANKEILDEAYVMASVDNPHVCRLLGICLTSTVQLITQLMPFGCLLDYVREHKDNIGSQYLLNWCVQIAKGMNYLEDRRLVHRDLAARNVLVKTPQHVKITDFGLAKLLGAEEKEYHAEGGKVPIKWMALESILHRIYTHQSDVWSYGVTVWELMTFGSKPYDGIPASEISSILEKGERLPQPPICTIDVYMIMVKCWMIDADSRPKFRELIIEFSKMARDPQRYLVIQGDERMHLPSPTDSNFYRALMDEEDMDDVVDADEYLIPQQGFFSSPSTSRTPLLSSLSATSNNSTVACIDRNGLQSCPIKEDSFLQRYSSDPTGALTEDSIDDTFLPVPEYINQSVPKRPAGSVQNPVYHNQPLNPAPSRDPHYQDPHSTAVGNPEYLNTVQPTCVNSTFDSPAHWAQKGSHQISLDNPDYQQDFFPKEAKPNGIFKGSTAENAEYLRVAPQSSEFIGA

[13] = target: p60^c-src (Homo sapiens, UniProt P12931); conditions: from the literature; read-out: Potency, p60^c-src; cited from earlier work
[14] = system: NMDA receptor; conditions: 3 mM glutamate, 1 mM glycine; MK-801 100 μM, U0126 10 μM
Method: Cells were loaded with 5 μM Fura-2-AM (Molecular Probes) for 1 hr at 37° C. They were washed once with Hank's balanced salt solution (HBSS, Gibco BRL), and assayed in HBSS buffer. Cells were placed onto the stage of a modified ATTOFLUOR™ Imager (Atto Instruments, Rockville Pike, Md.). High speed, dual excitation of fura-2 was carried out using a RATIOARC™ High-Speed Excitor (Atto Instruments). Mercury lamp light was passed through 334 nm or 380 nm bandpass filters (10 nm band width), and then passed through a 20× objective (Zeiss, Plan-Apochromat, NA=0.75) at a rate of 2.5 Hz. Emitted light was transmitted through a 400 nm dichroic mirror, and collected to an ATTOFLUORT intensified CCD camera. Ratio-images were acquired, and the average intensity of the images when excited at 334 nm and 380 nm was analyzed using ATTOFLUOR RATIOVISION™ software (Atto Instruments, Rockville, Md.).
MK-801 was administered 24 hours prior to assay. Traces are the average ±standard error from three separate experiments for each condition. […] MK-801 inhibition of [^3H]-MK-801 binding was assayed in P19 membranes. MK-801 concentrations are expressed as 10^−x Molar. Data points represent the mean ±standard error from eight experiments. % control=((CPM−CPMbottom)/(CPMtop−CPMbottom))×100.
Traces are the average ±standard error from four separate experiments for each condition.

[15] = system: NMDA receptor; conditions: P19 membranes; concentration-dependent
Method: MK-801 inhibition of [^3H]-MK-801 binding was assayed in P19 membranes. MK-801 concentrations are expressed as 10^−x Molar. Data points represent the mean ±standard error from eight experiments. % control=((CPM−CPMbottom)/(CPMtop−CPMbottom))×100.
Data points represent the mean ±standard error from eight experiments.

[16] = target: PKA (Homo sapiens, UniProt P17612); conditions: from the literature; read-out: Potency, PKA; cited from earlier work
[17] = target: T8, PKG (Homo sapiens, UniProt Q13976); conditions: from the literature; read-out: Potency, PKG; cited from earlier work
T8 sequence (Q13976 1-671): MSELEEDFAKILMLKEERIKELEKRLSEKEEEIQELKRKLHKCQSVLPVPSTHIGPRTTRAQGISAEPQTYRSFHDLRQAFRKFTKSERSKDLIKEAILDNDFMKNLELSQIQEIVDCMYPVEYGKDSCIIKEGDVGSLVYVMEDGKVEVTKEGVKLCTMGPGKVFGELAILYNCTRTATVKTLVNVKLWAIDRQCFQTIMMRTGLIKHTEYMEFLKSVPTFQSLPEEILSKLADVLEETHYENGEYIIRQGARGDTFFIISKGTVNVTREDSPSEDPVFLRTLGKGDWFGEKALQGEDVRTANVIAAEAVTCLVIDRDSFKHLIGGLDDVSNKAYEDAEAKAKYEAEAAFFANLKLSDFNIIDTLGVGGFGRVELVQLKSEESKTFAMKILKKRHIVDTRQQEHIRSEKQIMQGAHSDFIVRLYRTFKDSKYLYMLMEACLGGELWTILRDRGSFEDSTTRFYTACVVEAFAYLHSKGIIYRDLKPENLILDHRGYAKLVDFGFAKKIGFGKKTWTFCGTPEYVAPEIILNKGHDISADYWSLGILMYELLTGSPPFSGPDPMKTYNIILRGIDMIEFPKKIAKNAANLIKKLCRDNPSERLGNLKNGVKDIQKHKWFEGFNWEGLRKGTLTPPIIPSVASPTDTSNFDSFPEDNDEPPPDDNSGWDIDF

[18] = system: PKC; conditions: from the literature; read-out: Potency, PKC; cited from earlier work
[19] = Mus musculus, Neuron, 3 mM glutamate + 1 mM glycine
[20] = 3 mM glutamate + 1 mM glycine, mean of three separate curves

CNc1ccc2oc(C[C@H]3O[C@@]4(CC[C@H]3C)O[C@H]([C@H](C)C(=O)c3ccc[nH]3)[C@H](C)C[C@H]4C)nc2c1C(=O)O [A23187]
EC50 ([1]; read-out: EC50 for A23187 toxicity, 24 hours, in the absence of U0126): 0.52 µM
EC50 ([1]; read-out: EC50 for A23187 toxicity, 24 hours, in the presence of 10 μM U0126): 0.833 µM

COc1cc(N)nc2[nH]c(-c3ccc(F)cc3)c(-c3ccncc3)c12 [Compound A]
IC50 [2]: > 100 µM
IC50 ([3]; Mus musculus, Neuron, 3 mM glutamate + 1 mM glycine, mean of three separate curves): 9.7 µM
Emax [3, 19]: > 80%
IC50 [4]: > 100 µM
IC50 [5]: > 100 µM
IC50 [6]: > 100 µM
IC50 [7]: > 100 µM
IC50 [8]: 8.35 µM
IC50 [9]: 0.116 µM

N[C@@H](CCC(=O)O)C(=O)O [Glutamate]
reduction in Alamar blue fluorescence ([3]; 3 mM glutamate and 1 mM glycine for 24 hours): 60%
EC50 ([3]; constant 1 mM glycine, 24 hours, average of 6 curves, read-out: Glutamate toxicity EC50): 8.1 µM

NCC(=O)O [Glycine]
effect on basal P19 neuron viability [10]: did not affect P19 neuron viability

CN([C@@H](Cc1ccc(OS(=O)(=O)c2cccc3cnccc23)cc1)C(=O)N1CCN(c2ccccc2)CC1)S(=O)(=O)c1cccc2cnccc12 [KN62]
Ki [11]: ~0.9 µM
Maximal Efficacy for Neuroprotection ([3]; 3 mM glutamate + 1 mM glycine): <10%
IC50 for Neuroprotection [lower-upper 95% C.I.] [3, 20]: Ineffective

O=C(O)c1cc(N(Cc2ccccc2O)Cc2cc(O)ccc2O)ccc1O [Lavendustin A]
IC50 [12]: ~0.011 µM
IC50 [13]: ~0.5 µM
Maximal Efficacy for Neuroprotection ([3]; 3 mM glutamate + 1 mM glycine): <25%
IC50 [3, 20]: > 10 µM

[Li] [Lithium]
Emax [3, 19]: < 10%

C[C@]12N[C@H](Cc3ccccc31)c1ccccc12 [MK-801]
effect on glutamate/glycine-induced intracellular calcium response [14]: significantly inhibited
inhibition of [3H]-MK-801 binding [15]: 100%
Maximal protection against glutamate toxicity ([3]; 3 mM glutamate and 1 mM glycine-induced P19 neuron death): close to control levels

Calphostin C
IC50 [13]: > 50 µM
Maximal Efficacy for Neuroprotection ([3]; 3 mM glutamate + 1 mM glycine): ˜50%
IC50 [3, 20]: > 1 µM
IC50 [16]: > 50 µM
IC50 [17]: > 25 µM
IC50 [18]: ~0.05 µM

From patent US20020198219A1, “2-pyridinamine compositions and related methods” (priority 2000, published 2002)
